{"source": "patent US20240207250A1", "about": "“AGENT FOR PROMOTING LIPID REDUCTION” (MITSUBISHI GAS CHEMICAL COMPANY, INC., priority 2021, published 2024)", "type_in_all_cases": "in vivo", "key": {"daphnids (Daphnia magna) [1]": {"tested_on": "daphnids (Daphnia magna)", "test": "Measurement of fat mass of daphnids by Nile red fluorescence (lipid reduction promotion test)", "conditions": "for Body Fat Mass vs Comparative Example 1 (%), Average: Nile red fluorescence intensity, Comparative Example 1 (no IPQ) = 100, 5 daphnids, 4 days after addition to breeding water, H-IPQ 50 μM or 200 μM, Arg-IPQ 80 mg/L, Leu-IPQ 80 mg/L, ECGC 1 mg/L, carnitine 2 mg/L; for body fat mass as compared with the control (Comparative Example 1), in words: daphnids bred 4 days with substance in breeding water", "method": "In the present examples, […] (scientific name: Daphnia magna) were used in a lipid reduction promotion test. As chlorella (scientific name: Chlorella vulgaris) used as a feed for the […], a product of […] Center LLC was used. Specifically, parent […] bred in a water tank at 22° C. under a day cycle of an 8/16-hour light/dark cycle. The chlorella used as the feed was supplied in an amount of 8×10^7 on Monday, Wednesday, and Friday. Breeding water held in the water tank was exchanged at a frequency of once a week. Under these breeding conditions, child […] born from the parent […] used in the following examples. 10 child […] bred in 500 mL of mineral water (at 22° C.) under a day cycle of an 8/16-hour light/dark cycle. […] 10 child […] bred in 500 mL of mineral water (at 22° C.) under a day cycle of an 8/16-hour light/dark cycle. […] 10 child […] bred in 500 mL of mineral water (at 22° C.) under a day cycle of an 8/16-hour light/dark cycle. […] 10 child […] bred in 500 mL of mineral water (at 22° C.) under a day cycle of an 8/16-hour light/dark cycle. […] 10 child […] bred in 500 mL of mineral water (at 22° C.) under a day cycle of an 8/16-hour light/dark cycle. […] 10 child […] bred in 500 mL of mineral water (at 22° C.) under a day cycle of an 8/16-hour light/dark cycle. […] The fat mass was measured in accordance with Non Patent Literature 4. […] Thereafter, the […] washed with water, and taken out. Water was added thereto in an amount of 300 μL per […], and the resultant was ground by applying ultrasonic waves for 15 minutes. The thus obtained ground liquid was centrifuged to collect a supernatant. The resultant was measured for a fluorescence intensity through 485 nm excitation/535 nm detection using a plate reader. This measurement operation was performed on 5 […]."}, "daphnids (Daphnia magna) [2]": {"tested_on": "daphnids (Daphnia magna)", "test": "Measurement of body length of daphnids", "conditions": "for Body Length (mm), Average: daphnids bred 4 days with substance, Arg-IPQ 80 mg/L, Leu-IPQ 80 mg/L, ECGC 1 mg/L, carnitine 2 mg/L, control 2.37 mm; for body length as compared with the control (Comparative Example 1), in words: daphnids bred 4 days with substance in breeding water"}, "daphnids (Daphnia magna) [3]": {"tested_on": "daphnids (Daphnia magna)", "test": "Caloric restriction equivalent amount from correlation between amount of feed and fat mass", "conditions": "calculated from fat mass (fluorescence intensity) with feed/fat mass regression line; Comparative Example 1 = 0", "description": "Then, the logarithm of the amount of the feed and the fat mass (fluorescence intensity) obtained after the breeding were plotted as illustrated in FIG. 2 (n=5). When an approximate straight line was drawn on the plots, the approximate straight line was represented by the following equation, and the correlation coefficient was R=0.996. [formula] [formula] [formula] This equation of the approximate straight line can be regarded as a relational expression between the logarithm of the amount of the feed, namely, calorie intake, and the fat mass (fluorescence intensity) after the breeding."}, "daphnids (Daphnia magna) [4]": {"tested_on": "daphnids (Daphnia magna)", "test": "Evaluation of movement capability of daphnids (video analysis of moving distance)", "conditions": "for moving distance for 30 seconds, Daphnid 1: individual Daphnid 1, control 20.01 cm; for moving distance for 30 seconds, Daphnid 2: individual Daphnid 2, control 22.67 cm; for moving distance for 30 seconds, Daphnid 3: individual Daphnid 3, control 18.62 cm; for amount of exercise improved (times vs control): moving distance relative to control daphnids; for moving distance for 30 seconds, Average ± Standard Deviation: three daphnids, control 20.46 ± 2.06 cm", "method": "The daphnids bred under condition of no IPQ described in Comparative Example 1 (control), and the daphnids bred in the presence of H-IPQ, Arg-IPQ, and Leu-IPQ respectively described in Examples 1 to 3 were used. 20 mL of mineral water was put in each of four 100 mm-glass petri dishes, into each of which one daphnid bred in Comparative Example 1 and Examples 1 to 3 was transferred. These petri dishes were placed to be adjacent to one another, and the movement for 1 minute of the daphnids was recorded. This operation was repeated three times using different individuals. Then, Kinovea video analysis software was used to analyze a moving distance for 30 seconds of each daphnid.\nIt is noted that the daphnids were in a state of always moving in the test, which is regarded as a state of exercise with an intensity of 3 METs or more in terms of human exercise intensity."}}}
{"compound": "O=C(O[C@@H]1Cc2c(O)cc(O)cc2O[C@@H]1c1cc(O)c(O)c(O)c1)c1cc(O)c(O)c(O)c1", "note": "[Comparative Example 2, Epigallocatechin Gallate, reference compound]", "values": [{"measurement": "Body Fat Mass vs Comparative Example 1 (%), Average", "setting": "daphnids (Daphnia magna) [1]", "result": 102.0, "unit": "%"}, {"measurement": "body fat mass as compared with the control (Comparative Example 1), in words", "setting": "daphnids (Daphnia magna) [1]", "result": "neither increased not reduced"}, {"measurement": "Body Length (mm), Average", "setting": "daphnids (Daphnia magna) [2]", "result": 2.43, "unit": "mm"}, {"measurement": "Caloric Restriction Equivalent Amount (0 meaning no caloric restriction)", "setting": "daphnids (Daphnia magna) [3]", "result": "−7", "unit": "%"}]}
{"compound": "C[N+](C)(C)CC(O)CC(=O)[O-]", "note": "(stereo not shown) [Comparative Example 3, carnitine, reference compound]", "values": [{"measurement": "Body Fat Mass vs Comparative Example 1 (%), Average", "setting": "daphnids (Daphnia magna) [1]", "result": 133.8, "unit": "%"}, {"measurement": "body fat mass as compared with the control (Comparative Example 1), in words", "setting": "daphnids (Daphnia magna) [1]", "result": "increased"}, {"measurement": "Body Length (mm), Average", "setting": "daphnids (Daphnia magna) [2]", "result": 2.82, "unit": "mm"}, {"measurement": "Caloric Restriction Equivalent Amount (0 meaning no caloric restriction)", "setting": "daphnids (Daphnia magna) [3]", "result": "−231", "unit": "%"}]}
{"compound": "O=C([O-])c1cc2c(=O)c3ncn4c(C(=O)[O-])cc(C(=O)[O-])c(c2[nH]1)c34.[Na+].[Na+].[Na+]", "note": "[Example 1, glycine residue IPQ trisodium]", "values": [{"measurement": "Body Fat Mass vs Comparative Example 1 (%), Average", "setting": "daphnids (Daphnia magna) [1]", "result": 60.3, "unit": "%"}, {"measurement": "body fat mass as compared with the control (Comparative Example 1), in words", "setting": "daphnids (Daphnia magna) [1]", "result": "reduced"}, {"measurement": "body length as compared with the control (Comparative Example 1), in words", "setting": "daphnids (Daphnia magna) [2]", "result": "not grown to be very large"}, {"measurement": "moving distance for 30 seconds, Daphnid 1", "setting": "daphnids (Daphnia magna) [4]", "result": 24.23, "unit": "cm"}, {"measurement": "moving distance for 30 seconds, Daphnid 2", "setting": "daphnids (Daphnia magna) [4]", "result": 21.43, "unit": "cm"}, {"measurement": "moving distance for 30 seconds, Daphnid 3", "setting": "daphnids (Daphnia magna) [4]", "result": 27.85, "unit": "cm"}, {"measurement": "amount of exercise improved (times vs control)", "setting": "daphnids (Daphnia magna) [4]", "result": "about 1.2 times"}, {"measurement": "moving distance for 30 seconds, Average ± Standard Deviation", "setting": "daphnids (Daphnia magna) [4]", "result": "24.50 ± 3.22", "unit": "cm"}, {"measurement": "Caloric Restriction Equivalent Amount (0 meaning no caloric restriction)", "setting": "daphnids (Daphnia magna) [3]", "result": 73, "unit": "%"}]}
{"compound": "N=C(N)NCCCc1nc2c(=O)c3cc(C(=O)O)[nH]c3c3c(C(=O)[O-])cc(C(=O)[O-])n1c23.[Na+].[Na+]", "note": "[Example 2, Arginine Residue IPQ Disodium]", "values": [{"measurement": "Body Fat Mass vs Comparative Example 1 (%), Average", "setting": "daphnids (Daphnia magna) [1]", "result": 79.7, "unit": "%"}, {"measurement": "body fat mass as compared with the control (Comparative Example 1), in words", "setting": "daphnids (Daphnia magna) [1]", "result": "reduced"}, {"measurement": "body length as compared with the control (Comparative Example 1), in words", "setting": "daphnids (Daphnia magna) [2]", "result": "grown to be larger"}, {"measurement": "Body Length (mm), Average", "setting": "daphnids (Daphnia magna) [2]", "result": 2.64, "unit": "mm"}, {"measurement": "moving distance for 30 seconds, Daphnid 1", "setting": "daphnids (Daphnia magna) [4]", "result": 25.33, "unit": "cm"}, {"measurement": "moving distance for 30 seconds, Daphnid 2", "setting": "daphnids (Daphnia magna) [4]", "result": 30.35, "unit": "cm"}, {"measurement": "moving distance for 30 seconds, Daphnid 3", "setting": "daphnids (Daphnia magna) [4]", "result": 30.47, "unit": "cm"}, {"measurement": "amount of exercise improved (times vs control)", "setting": "daphnids (Daphnia magna) [4]", "result": 1.4, "unit": "times"}, {"measurement": "moving distance for 30 seconds, Average ± Standard Deviation", "setting": "daphnids (Daphnia magna) [4]", "result": "28.72 ± 2.93", "unit": "cm"}, {"measurement": "Caloric Restriction Equivalent Amount (0 meaning no caloric restriction)", "setting": "daphnids (Daphnia magna) [3]", "result": 45, "unit": "%"}]}
{"compound": "CC(C)Cc1nc2c(=O)c3cc(C(=O)O)[nH]c3c3c(C(=O)O)cc(C(=O)O)n1c23", "note": "[Example 3, leucine residue IPQ]", "values": [{"measurement": "Body Fat Mass vs Comparative Example 1 (%), Average", "setting": "daphnids (Daphnia magna) [1]", "result": 69.9, "unit": "%"}, {"measurement": "body fat mass as compared with the control (Comparative Example 1), in words", "setting": "daphnids (Daphnia magna) [1]", "result": "reduced"}, {"measurement": "body length as compared with the control (Comparative Example 1), in words", "setting": "daphnids (Daphnia magna) [2]", "result": "grown to be larger"}, {"measurement": "Body Length (mm), Average", "setting": "daphnids (Daphnia magna) [2]", "result": 2.52, "unit": "mm"}, {"measurement": "moving distance for 30 seconds, Daphnid 1", "setting": "daphnids (Daphnia magna) [4]", "result": 26.78, "unit": "cm"}, {"measurement": "moving distance for 30 seconds, Daphnid 2", "setting": "daphnids (Daphnia magna) [4]", "result": 21.56, "unit": "cm"}, {"measurement": "moving distance for 30 seconds, Daphnid 3", "setting": "daphnids (Daphnia magna) [4]", "result": 20.53, "unit": "cm"}, {"measurement": "amount of exercise improved (times vs control)", "setting": "daphnids (Daphnia magna) [4]", "result": 1.1, "unit": "times"}, {"measurement": "moving distance for 30 seconds, Average ± Standard Deviation", "setting": "daphnids (Daphnia magna) [4]", "result": "22.96 ± 3.35", "unit": "cm"}, {"measurement": "Caloric Restriction Equivalent Amount (0 meaning no caloric restriction)", "setting": "daphnids (Daphnia magna) [3]", "result": 62, "unit": "%"}]}
